We go through 26 compounds from patent publication US20240270740A1, “INHIBITORS OF CYCLIC GMP-AMP SYNTHASE AND USES THEREOF” (Ventus Therapeutics U.S., Inc., priority 2022, published 2024).

Experiment [1] concerns the target T1, hcGAS (Homo sapiens, UniProt Q8N884). Put plainly: hcGAS LCMS assay (direct measurement of cGAMP production). It is filed as biochemical. As to conditions: 0.5 nM hcGAS, 100 μM ATP, 100 μM GTP, 25 nM dsDNA, 4 h incubation. The method in brief: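 Direct LC/MS readout of cGAMP formed: 4-h enzyme–substrate incubation with compound, stopped by acetonitrile/water quench carrying isotope-labelled cGAMP (0.15 mM) as standard. Potency reported as IC50 ranges.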

Experiment [2] has as its target T1, hcGAS. Put plainly: hcGAS Kinase-Glo assay (ATP depletion). It is filed as biochemical. The following applies: 40 nM hcGAS, 100 μM ATP, 100 μM GTP, 25 nM dsDNA, 3 h incubation. In outline: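 Human cGAS activity measured indirectly as ATP depletion by Kinase-Glo luminescence, following the Lama et al. method with modified conditions. Output is IC50, binned into potency categories.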
For orientation: Kinase-Glo reads ATP consumption through a luciferase reaction.

T1 sequence (Q8N884 whole entry): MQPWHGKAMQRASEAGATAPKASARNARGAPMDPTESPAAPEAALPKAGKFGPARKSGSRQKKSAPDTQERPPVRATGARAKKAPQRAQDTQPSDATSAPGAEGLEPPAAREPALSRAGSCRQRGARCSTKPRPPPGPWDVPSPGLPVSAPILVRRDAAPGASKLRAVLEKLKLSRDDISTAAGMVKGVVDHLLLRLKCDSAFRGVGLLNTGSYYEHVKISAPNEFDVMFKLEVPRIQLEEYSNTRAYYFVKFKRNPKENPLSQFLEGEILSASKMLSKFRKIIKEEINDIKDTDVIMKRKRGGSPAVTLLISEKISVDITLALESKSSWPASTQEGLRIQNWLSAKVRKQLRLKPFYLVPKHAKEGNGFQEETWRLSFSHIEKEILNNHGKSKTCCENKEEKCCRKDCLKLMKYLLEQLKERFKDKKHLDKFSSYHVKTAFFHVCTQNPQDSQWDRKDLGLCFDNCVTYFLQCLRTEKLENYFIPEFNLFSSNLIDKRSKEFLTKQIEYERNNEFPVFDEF

One may read the IC50 as the concentration that inhibits the measured activity by half. With `COc1c(N[C@@H]2CCOC2)cc(C(=O)Nc2nnc(-n3nccc3C)s2)oc1=O` [Compound 184, (R)-3-methoxy-N-(5-(5-methyl-1H-pyrazol-1-yl)-1,3,4-thiadiazol-2-yl)-2-oxo-4-((tetrahydrofuran-3-yl)amino)-2H-pyran-6-carboxamide], the values for the IC50 on hcGAS [1] and at hcGAS [2] were 20 to 60 nM and 30 to 100 nM, respectively.

Consider `COc1c(N2CC[C@H](O)C2)cc(C(=O)Nc2nnc(-n3nccc3C)s2)oc1=O` [Compound 110, (S)-4-(3-hydroxypyrrolidin-1-yl)-3-methoxy-N-(5-(5-methyl-1H-pyrazol-1-yl)-1,3,4-thiadiazol-2-yl)-2-oxo-2H-pyran-6-carboxamide], for which the IC50 at hcGAS [1] lay within 5 to 20 nM; against hcGAS [2], 10 to 30 nM. On the same counts, the results for `COc1c(N[C@H]2CC[C@H](OC)CC2)cc(C(=O)Nc2nnc(-n3nccc3C)s2)oc1=O` [Compound 11, 3-methoxy-4-(((1,4-trans)-4-methoxycyclohexyl)amino)-N-(5-(5-methyl-1H-pyrazol-1-yl)-1,3,4-thiadiazol-2-yl)-2-oxo-2H-pyran-6-carboxamide] are 20 to 60 nM and 10 to 30 nM.

Turning to `COCCNc1cc(C(=O)Nc2nnc(-c3c(Cl)ccn3C)s2)oc(=O)c1OC` [Compound 127, N-(5-(3-chloro-1-methyl-1H-pyrrol-2-yl)-1,3,4-thiadiazol-2-yl)-3-methoxy-4-((2-methoxyethyl)amino)-2-oxo-2H-pyran-6-carboxamide], the IC50 at hcGAS [1] is less than 5 nM; against hcGAS [2], 10 to 30 nM. As for `COc1c(N[C@H]2CC[C@H](O)C2)cc(C(=O)Nc2nnc(-n3nccc3C)s2)oc1=O` (racemic) [Rac-6, 4-(((1S,3S)-3-hydroxycyclopentyl)amino)-3-methoxy-N-(5-(5-methyl-1H-pyrazol-1-yl)-1,3,4-thiadiazol-2-yl)-2-oxo-2H-pyran-6-carboxamide], the IC50 against hcGAS [1] lay within 5 to 20 nM; at hcGAS [2], 10 to 30 nM. For `COc1c(NC23CC(OC)(C2)C3)cc(C(=O)Nc2nnc(-n3nccc3C)s2)oc1=O` [Compound 111, 3-methoxy-4-((3-methoxybicyclo[1.1.1]pentan-1-yl)amino)-N-(5-(5-methyl-1H-pyrazol-1-yl)-1,3,4-thiadiazol-2-yl)-2-oxo-2H-pyran-6-carboxamide], the IC50 against hcGAS [1] fell in the range of 5 to 20 nM; against hcGAS [2] it was 10 to 30 nM.

With `COc1c(N[C@@H]2CCC[C@@H]2O)cc(C(=O)Nc2nnc(-n3nccc3C)s2)oc1=O` [Compound 112, 4-(((1R,2S)-2-hydroxycyclopentyl)amino)-3-methoxy-N-(5-(5-methyl-1H-pyrazol-1-yl)-1,3,4-thiadiazol-2-yl)-2-oxo-2H-pyran-6-carboxamide], the results for the IC50 on hcGAS [1] and against hcGAS [2] were less than 5 nM and less than 10 nM, respectively. On the same counts, the results for `COc1c(N[C@H]2CC[C@H](OC)C2)cc(C(=O)Nc2nnc(-n3nccc3C)s2)oc1=O` (racemic) [Rac-109, 3-methoxy-4-(((trans)-3-methoxycyclopentyl)amino)-N-(5-(5-methyl-1H-pyrazol-1-yl)-1,3,4-thiadiazol-2-yl)-2-oxo-2H-pyran-6-carboxamide] are 5 to 20 nM and 10 to 30 nM. On the same counts, the results for `COc1c(N2C[C@H](OC)[C@@H](O)C2)cc(C(=O)Nc2nnc(-n3nccc3C)s2)oc1=O` (racemic) [Rac-91, 4-((3S,4S)-3-hydroxy-4-methoxypyrrolidin-1-yl)-3-methoxy-N-(5-(5-methyl-1H-pyrazol-1-yl)-1,3,4-thiadiazol-2-yl)-2-oxo-2H-pyran-6-carboxamide] are 5 to 20 nM and less than 10 nM. On the same counts, the results for `COc1c(NC[C@@H](C)OC)cc(C(=O)Nc2nnc(-n3nccc3C)s2)oc1=O` [Compound 119, (R)-3-methoxy-4-((2-methoxypropyl)amino)-N-(5-(5-methyl-1H-pyrazol-1-yl)-1,3,4-thiadiazol-2-yl)-2-oxo-2H-pyran-6-carboxamide] are 5 to 20 nM and 10 to 30 nM. On to `COc1c(NC23CC(CC#N)(C2)C3)cc(C(=O)Nc2nnc(-n3nccc3C)s2)oc1=O` [Compound 116, 4-((3-(cyanomethyl)bicyclo[1.1.1]pentan-1-yl)amino)-3-methoxy-N-(5-(5-methyl-1H-pyrazol-1-yl)-1,3,4-thiadiazol-2-yl)-2-oxo-2H-pyran-6-carboxamide], for which the IC50 against hcGAS [1] fell in the range of 5 to 20 nM; against hcGAS [2], 10 to 30 nM. On the same counts, the results for `COc1c(N2CC[C@H](S(C)(=O)=O)C2)cc(C(=O)Nc2nnc(-n3nccc3C)s2)oc1=O` [Compound 60, (S)-3-methoxy-N-(5-(5-methyl-1H-pyrazol-1-yl)-1,3,4-thiadiazol-2-yl)-4-(3-(methylsulfonyl)pyrrolidin-1-yl)-2-oxo-2H-pyran-6-carboxamide] are 5 to 20 nM and 10 to 30 nM. On the same counts, the results for `COCCNc1cc(C(=O)Nc2nnc(-n3nccc3C)s2)oc(=O)c1OC` [Compound 75, 3-methoxy-4-((2-methoxyethyl)amino)-N-(5-(5-methyl-1H-pyrazol-1-yl)-1,3,4-thiadiazol-2-yl)-2-oxo-2H-pyran-6-carboxamide] are 5 to 20 nM and 30 to 100 nM. On the same counts, the results for `COc1c(NCCO)cc(C(=O)Nc2nnc(-c3c(Cl)ccn3C)s2)oc1=O` [Compound 129, N-(5-(3-chloro-1-methyl-1H-pyrrol-2-yl)-1,3,4-thiadiazol-2-yl)-4-((2-hydroxyethyl)amino)-3-methoxy-2-oxo-2H-pyran-6-carboxamide] are 5 to 20 nM and less than 10 nM. For the compound `COc1c(N2CC[C@@H](OC)C2)cc(C(=O)Nc2nnc(-n3nccc3C)s2)oc1=O` [Compound 31, (R)-5-methoxy-4-(3-methoxypyrrolidin-1-yl)-N-(5-(5-methyl-1H-pyrazol-1-yl)-1,3,4-thiadiazol-2-yl)-6-oxo-6H-pyran-2-carboxamide], the IC50 against hcGAS [1] lay within 5 to 20 nM; against hcGAS [2], 10 to 30 nM. On the same counts, the results for `COc1c(N2C[C@H](OC)[C@H](OC)C2)cc(C(=O)Nc2nnc(-n3nccc3C)s2)oc1=O` [Compound 59, 4-((3S,4R)-3,4-dimethoxypyrrolidin-1-yl)-3-methoxy-N-R(5-(5-methyl-1H-pyrazol-1-yl)-1,3,4-thiadiazol-2-yl)-2-oxo-2H-pyran-6-carboxamide] are 5 to 20 nM and 10 to 30 nM. On the same counts, the results for `COc1c(N2CC[C@H](OC)C2)cc(C(=O)Nc2nnc(-n3nccc3C)s2)oc1=O` [Compound 57, (S)-3-methoxy-4-(3-methoxypyrrolidin-1-yl)-N-(5-(5-methyl-1H-pyrazol-1-yl)-1,3,4-thiadiazol-2-yl)-2-oxo-2H-pyran-6-carboxamide] are 5 to 20 nM and 10 to 30 nM.

With `COc1c(N[C@H]2CCOC2)cc(C(=O)Nc2nnc(-n3nccc3C)s2)oc1=O` [Compound 185, (S)-3-methoxy-N-(5-(5-methyl-1H-pyrazol-1-yl)-1,3,4-thiadiazol-2-yl)-2-oxo-4-((tetrahydrofuran-3-yl)amino)-2H-pyran-6-carboxamide], the IC50 against hcGAS [1] lay in the range of 5 to 20 nM; at hcGAS [2] it was 30 to 100 nM.

As for `COc1c(N2C[C@H](O)[C@H](OC)C2)cc(C(=O)Nc2nnc(-n3nccc3C)s2)oc1=O` (racemic) [Rac-68, 4-((3S,4R)-3-hydroxy-4-methoxypyrrolidin-1-yl)-3-methoxy-N-(5-(5-methyl-1H-pyrazol-1-yl)-1,3,4-thiadiazol-2-yl)-2-oxo-2H-pyran-6-carboxamide], the values for the half-maximal inhibitory concentration (IC50) at hcGAS [1] and on hcGAS [2] were 5 to 20 nM and 10 to 30 nM, respectively. On the same counts, the results for `COc1c(N[C@H]2CCS(=O)(=O)C2)cc(C(=O)Nc2nnc(-n3nccc3C)s2)oc1=O` [Compound 62, (S)-4-((1,1-dioxidotetrahydrothiophen-3-yl)amino)-3-methoxy-N-(5-(5-methyl-1H-pyrazol-1-yl)-1,3,4-thiadiazol-2-yl)-2-oxo-2H-pyran-6-carboxamide] are 5 to 20 nM and 10 to 30 nM. For `COc1c(NCCO)cc(C(=O)Nc2nnc(-n3nccc3C)s2)oc1=O` [Compound 130, 4-((2-hydroxyethyl)amino)-3-methoxy-N-(5-(5-methyl-1H-pyrazol-1-yl)-1,3,4-thiadiazol-2-yl)-2-oxo-2H-pyran-6-carboxamide], the half-maximal inhibitory concentration (IC50) on hcGAS [1] is 20 to 60 nM; on hcGAS [2] it was 30 to 100 nM. On the same counts, the results for `COCCNc1cc(C(=O)Nc2nnc(-c3sccc3Cl)s2)oc(=O)c1OC` [Compound 146, N-[5-(3-chlorothiophen-2-yl)-1,3,4-thiadiazol-2-yl]-5-methoxy-4-[(2-methoxyethyl)amino]-6-oxopyran-2-carboxamide] are 5 to 20 nM and 10 to 30 nM. Take `COc1c(N[C@H]2CC[C@@H](OC)CC2)cc(C(=O)Nc2nnc(-n3nccc3C)s2)oc1=O` [Compound 219, 3-methoxy-4-((1,4-cis-4-methoxycyclohexyl)amino)-N-(5-(5-methyl-1H-pyrazol-1-yl)-1,3,4-thiadiazol-2-yl)-2-oxo-2H-pyran-6-carboxamide]: on hcGAS [2], the IC50 fell in the range of 10 to 30 nM.

On hcGAS [2], `COc1c(NCCCO)cc(C(=O)Nc2nnc(-n3nccc3C)s2)oc1=O` [Compound 35, 4-((3-hydroxypropyl)amino)-3-methoxy-N-(5-(5-methyl-1H-pyrazol-1-yl)-1,3,4-thiadiazol-2-yl)-2-oxo-2H-pyran-6-carboxamide] had an IC50 of 10 to 30 nM. In the case of `COc1c(N[C@@H]2CCS(=O)(=O)C2)cc(C(=O)Nc2nnc(-n3nccc3C)s2)oc1=O` [Compound 82, (R)-4-((1,1-dioxidotetrahydrothiophen-3-yl)amino)-3-methoxy-N-(5-(5-methyl-1H-pyrazol-1-yl)-1,3,4-thiadiazol-2-yl)-2-oxo-2H-pyran-6-carboxamide], the IC50 on hcGAS [2] was in the range of 30 to 100 nM. In turn, `COCCN(CCOC)c1cc(C(=O)Nc2nnc(-n3nccc3C)s2)oc(=O)c1OC` [Compound 63, 4-(bis(2-methoxyethyl)amino)-3-methoxy-N-(5-(5-methyl-1H-pyrazol-1-yl)-1,3,4-thiadiazol-2-yl)-2-oxo-2H-pyran-6-carboxamide] registered an IC50 against hcGAS [2] of no less than 100 nM.
